Laboratory results: patent publication US20080234232A1, “Methods and compositions for targeting AFAP” (priority 2007, published 2008)

Tests used:
PI3K [1] = assay: Immunofluorescence of Ptdlns-3,4,5-P3 production in SYF/cSrc cells; type: cell-based, mouse; conditions: 100 nM PMA
Protocol: SYF/cSrc cells were serum-starved for 24 hours. Cells stimulated with 10% serum (panels c-f), 100 nM PMA for 5 (panels g-h), or 15 minutes (panels i-j); as well as treated with 100 nM PMA in combination with 6 μM bisindolylmaleimide [I] (panels k-I) or 50 nM wortmannin (panels m-n). Cells treated with 100 nM PMA in combination with 5 μM PP1 (panel o-p) and Ptdlns-3,4,5-P3 levels evaluated. Cells were immunolabeled with a PI-3,4,5-P3-specific antibody (Echelon, Inc.;1:100) and TRITC-phalloidin (1:500). Secondary antibody for anti-PI-3,4,5-P3 (1:100) was Alexa IgM 647 anti-mouse (1:200). Bars represent 20 μm.
SYF, SYF/cSrc, p85α+/+ and p85−/− cells were cultured in standard culture media. Transient transfections of SYF, SYF/cSrc, p85α+/+ cells for immunofluorescence were carried out using LipofectAMINE™ Reagent (Invitrogen) as per manufacturer's protocol. Briefly, Approximately 5.0-8.0×10^4 cells per well were transfected at 50-70% confluent on coverstips with 2-4 μg of plasmid DNA and incubated for 3-4 hours. Thirty-six hours after transfection, cells were serum starved for 12 hours, treated, and subsequently fixed and permeablized as previously described (Qian, Y. et. al., 1998). Cells were treated with a PKC activator, 100 nM PMA for 5 or 15 minutes or in combination with the following pretreatments; a PKC inhibitor, 6 μM bisindolylmaleimide [I] for six hours; or PI3K inhibitor, 10 μM LY294002 for six hours; 50 nM Wortmannin for 30 minutes; and/or a Src family inhibitor, 5 μM PP1 for six hours. For actin labeling, a 1:500 dilution of TRITC-phalloidin was used as labeled in the figures. Primary antibody concentrations used were diluted in 5% Bovine Serum Albumin (BSA) dissolved in 1× phosphate-buffered saline (PBS): EC10 mAb-1:500; Phospho-Src Family (Y416) pAb-1:250; Anti-PI-3,4,5-P3 mAb-1:100; Anti-AFAP-110 (F1)pAb-1:1000; Anti-cSrc pAb-1:500; Anti-flag-1:1000. All fluorescent secondary and phalloidin antibodies were diluted 1:200 in 5% BSA, and are labeled according to figure legends. Cells were washed and mounted on slides with Fluoromount-G (Fisher). A Zeiss LSM 510 confocal microscope was used to scan images of about 1 μM in thickness. To prevent cross-contamination between the different fluorochromes, each channel was imaged sequentially using the multitrack recording module before merging the images. For all figures, representative cells are shown (>100 cells examined per image shown).
Ptdlns-3,4,5-P3 production was measured using the anti-Ptdlns-3,4,5-P3 antibody (Echelon, inc.) for analysis by immunofluorescence and contrasted with stress filament integrity, measured using TRITC-phalloidin as previously described (Chen, R. et. al., 2002; Hama, H. et. al., 2004). SYF/cSrc cells were left untreated or treated with serum as controls for PI3K activation. […] In addition, SYF/cSrc cells were stimulated with PMA for 5 or 15 minutes.

PI3K [2] = assay: Surrogate markers for PI3K activation in the MEF cell system; type: cell-based, mouse; conditions: PMA treatment
PI3K [3] = target: T1, PI3K (Mus musculus, UniProt P42337); assay: In vitro PI3K kinase assay on anti-p110α immunoprecipitates of treated SYF/cSrc cells; type: cell-based; conditions: SYF/cSrc cells serum-starved, 100 nM PMA for 5 or 15 minutes
T1 construct: a PI3K kinase activity assay performed using anti-p1100α immunoprecipitates; endogenous in cells; host or cells: SYF/cSrc mouse embryo fibroblasts (lysate, anti-p110α immunoprecipitate)
Protocol: FIG. 3: PMA treatment results in an increase in PI3K activation, in vitro. SYF/cSrc cells were cultured under serum-free conditions for 24 hours. Cells were unstimulated or stimulated with 10% serum (positive control), 100 nM PMA for 5 or 15 minutes. Cells were then lysed in kinase assay buffer and a PI3K kinase activity assay performed using anti-p1100α immunoprecipitates to measure PMA-induced incorporation of [^32p] into phosphoinositide substrates.
PI3K activity was determined using the In vitro PI3K kinase assay as previously described (Jiang, B. H. et. al., 1998). Cells were serum-starved 24 hours. The media was changed and cells were then treated with either 10% fetal calf serum or 100 nM PMA for 5 or 15 minutes alone or in conjunction with 6 μM bisindolylmaleimide [i] or 10 μM LY294002 for six hours as a negative control. Upon completion of the incubation, the cells were lysed in cold kinase lysis buffer [150 mM NaCl, 100 mM Tris pH 8.0, 1% Triton X-100, 5 mM EDTA, 10 mM NaF, plus inhibitors (1 mg/ml leuptin, 1 mg/ml peptatin, 0.5 M sodium vanadate, 1 mg/ml aprotinin, and 1M DTT)]. Five hundred micrograms (500 μg) of protein was incubated with p110α antibody overnight at 4° C. Forty microliters (40 μl) of protein A/G PLUS agarose beads (50% slurry) was added and incubated for an additional two hours. […]

T1 sequence (P42337 whole entry): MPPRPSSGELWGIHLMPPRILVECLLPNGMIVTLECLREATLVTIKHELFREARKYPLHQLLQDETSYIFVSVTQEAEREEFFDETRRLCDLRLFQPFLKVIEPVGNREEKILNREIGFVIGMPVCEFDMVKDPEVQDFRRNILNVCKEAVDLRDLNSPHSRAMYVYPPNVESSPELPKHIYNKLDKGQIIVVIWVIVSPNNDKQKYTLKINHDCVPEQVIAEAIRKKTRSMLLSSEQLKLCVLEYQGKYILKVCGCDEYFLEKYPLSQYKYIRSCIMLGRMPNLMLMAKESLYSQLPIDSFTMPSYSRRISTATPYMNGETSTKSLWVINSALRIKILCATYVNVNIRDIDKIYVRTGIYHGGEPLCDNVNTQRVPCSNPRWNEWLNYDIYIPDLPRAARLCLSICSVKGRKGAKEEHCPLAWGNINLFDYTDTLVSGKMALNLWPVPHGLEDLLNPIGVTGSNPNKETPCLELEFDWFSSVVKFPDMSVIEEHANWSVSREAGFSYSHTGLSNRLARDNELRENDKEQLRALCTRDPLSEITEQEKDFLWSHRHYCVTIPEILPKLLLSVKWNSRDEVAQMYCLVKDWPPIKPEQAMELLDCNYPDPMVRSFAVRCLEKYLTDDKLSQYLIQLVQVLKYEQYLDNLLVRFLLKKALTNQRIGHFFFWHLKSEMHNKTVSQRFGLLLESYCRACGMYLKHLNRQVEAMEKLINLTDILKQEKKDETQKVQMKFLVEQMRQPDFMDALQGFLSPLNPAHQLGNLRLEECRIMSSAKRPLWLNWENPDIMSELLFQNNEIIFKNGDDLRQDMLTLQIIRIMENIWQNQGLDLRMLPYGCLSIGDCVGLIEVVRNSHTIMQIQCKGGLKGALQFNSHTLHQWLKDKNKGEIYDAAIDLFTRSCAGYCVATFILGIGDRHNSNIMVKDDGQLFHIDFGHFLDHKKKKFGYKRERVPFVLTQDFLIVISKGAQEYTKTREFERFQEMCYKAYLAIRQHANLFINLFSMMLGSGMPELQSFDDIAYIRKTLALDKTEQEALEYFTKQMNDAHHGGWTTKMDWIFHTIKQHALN
T1 sequence (P26450 whole entry partner): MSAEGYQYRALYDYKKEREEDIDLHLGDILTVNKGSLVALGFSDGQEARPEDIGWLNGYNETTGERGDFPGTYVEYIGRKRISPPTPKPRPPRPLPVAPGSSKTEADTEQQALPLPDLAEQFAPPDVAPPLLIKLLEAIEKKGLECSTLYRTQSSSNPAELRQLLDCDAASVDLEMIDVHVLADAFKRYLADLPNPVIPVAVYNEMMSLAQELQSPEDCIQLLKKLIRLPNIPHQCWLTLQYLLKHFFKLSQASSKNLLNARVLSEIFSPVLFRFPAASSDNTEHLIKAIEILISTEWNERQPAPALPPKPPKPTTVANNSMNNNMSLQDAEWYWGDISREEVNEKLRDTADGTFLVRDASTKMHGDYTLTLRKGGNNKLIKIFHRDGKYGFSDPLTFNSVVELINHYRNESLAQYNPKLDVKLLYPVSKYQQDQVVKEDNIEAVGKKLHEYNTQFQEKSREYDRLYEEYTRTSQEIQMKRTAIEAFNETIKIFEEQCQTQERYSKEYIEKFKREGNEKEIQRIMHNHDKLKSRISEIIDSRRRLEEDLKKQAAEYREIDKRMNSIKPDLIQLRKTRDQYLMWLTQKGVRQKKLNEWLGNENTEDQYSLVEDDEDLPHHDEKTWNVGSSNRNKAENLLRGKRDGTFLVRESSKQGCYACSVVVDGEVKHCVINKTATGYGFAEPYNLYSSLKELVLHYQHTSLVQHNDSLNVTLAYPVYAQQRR

CCCCCCCCCCCCCC(=O)O[C@@H]1[C@@H](C)[C@@]2(O)[C@@H](C=C(CO)C[C@]3(O)C(=O)C(C)=C[C@@H]23)[C@@H]2C(C)(C)[C@]12OC(C)=O [PMA, Phorbol 12-myristate 13-acetate]
Ptdlns-3,4,5-P3 production (PI3K [1]; 5 minutes): able to induce | Ptdlns-3,4,5-P3 levels (PI3K [1]; 15 minutes): consistently reduced | Akt phosphorylation on serine 473 (PI3K [2]): could induce an increase | stabilization of HIF-1α (PI3K [2]): could induce | PI3K activity (incorporation of 32P into phosphoinositide substrate) (PI3K [3]): significant increase
